Experimental data from ChEMBL document CHEMBL3885861, “Open TG-GATES”.

Species on record: Rattus norvegicus
Assay: Open TG-GATES - Regimen: Single
Format: toxicity, organism-based, Sprague-Dawley
Parameters: regimen Single, gender Male, age 6 weeks
Details: in vivo, po, route gavage; for gamma-GTP / ALP / ALT / AST / BUN / CRE / DBIL / GLC / K / LDH / Na / PL / RALB / TBIL / TC / TG / TP: tissue Plasma; for APTT / Bas / Eos / Fbg / Hb / Ht / Lym / MCHC / MCV / Mono / PT / Plat / RBC / Ret / WBC: tissue Blood; for KIDNEY_L / KIDNEY_R / KIDNEY_TOTAL: tissue Kidney; for LIVER: tissue Liver
[1] = 1200 mg/kg, 3 h, dose level Middle
[2] = 1200 mg/kg, 6 h, dose level Middle
[3] = 1200 mg/kg, 9 h, dose level Middle
[4] = 1200 mg/kg, 24 h, dose level Middle
[5] = 2000 mg/kg, 3 h, dose level High
[6] = 2000 mg/kg, 6 h, dose level High
[7] = 2000 mg/kg, 9 h, dose level High
[8] = 2000 mg/kg, 24 h, dose level High

O=C1NC(=O)C(c2ccccc2)(c2ccccc2)N1 [PHENYTOIN]
gamma-GTP (600 mg/kg, 24 h, dose level Low): 1 IU/L | TERMINAL_BW [1]: 211.8 g | APTT [1]: 16.7 s | Bas [1]: 0.2% | Eos [1]: 1% | Fbg [1]: 284.4 mg/dL | Hb [1]: 13 g/dL | Ht [1]: 38.7% | Lym [1]: 75.2% | MCHC [1]: 33.6% | MCV [1]: 62.4 fL | Mono [1]: 3.4% | PT [1]: 13.8 s | Plat [1]: 122.5 x10_4/uL | RBC [1]: 621.4 x10_4/ul | Ret [1]: 8.4% | KIDNEY_L [1]: 0.9 g | KIDNEY_R [1]: 0.9 g | KIDNEY_TOTAL [1]: 1.8 g | LIVER [1]: 9.3 g | ALP [1]: 1502.4 IU/L | ALT [1]: 35.2 IU/L | AST [1]: 70.6 IU/L | BUN [1]: 10.2 mg/dL | CRE [1]: 0.2 mg/dL | DBIL [1]: 0.016 mg/dL | GLC [1]: 191.4 mg/dL | K [1]: 4 meq/L | LDH [1]: 98.2 IU/L | Na [1]: 142.2 meq/L | PL [1]: 146.8 mg/dL | RALB [1]: 2.5 g/dL | TBIL [1]: 0.052 mg/dL | TC [1]: 75.6 mg/dL | TG [1]: 74 mg/dL | TP [1]: 5.4 g/dL | gamma-GTP [1]: 1.2 IU/L | TERMINAL_BW [2]: 207.5 g | APTT [2]: 18 s | Bas [2]: 0.4% | Eos [2]: 1% | Fbg [2]: 279.4 mg/dL | Hb [2]: 13 g/dL | Ht [2]: 38.7% | Lym [2]: 73.2% | MCHC [2]: 33.7% | MCV [2]: 61.9 fL | Mono [2]: 3% | PT [2]: 14.5 s | RBC [2]: 625.6 x10_4/ul | Ret [2]: 8.2% | WBC [2]: 94.4 x10_2/uL | KIDNEY_L [2]: 0.9 g | KIDNEY_R [2]: 0.9 g | KIDNEY_TOTAL [2]: 1.9 g | LIVER [2]: 8.7 g | ALP [2]: 1256.2 IU/L | ALT [2]: 35.8 IU/L | AST [2]: 74.8 IU/L | BUN [2]: 7.8 mg/dL | CRE [2]: 0.2 mg/dL | DBIL [2]: 0.016 mg/dL | GLC [2]: 187 mg/dL | K [2]: 3.7 meq/L | LDH [2]: 77 IU/L | Na [2]: 143.4 meq/L | PL [2]: 141.4 mg/dL | RALB [2]: 2.5 g/dL | TBIL [2]: 0.058 mg/dL | TC [2]: 76.8 mg/dL | TG [2]: 30.6 mg/dL | TP [2]: 5.4 g/dL | gamma-GTP [2]: 1.2 IU/L | TERMINAL_BW [3]: 206.4 g | APTT [3]: 15.4 s | Bas [3]: 0.4% | Eos [3]: 1% | Fbg [3]: 297 mg/dL | Hb [3]: 13.1 g/dL | Ht [3]: 38.9% | Lym [3]: 78.6% | MCHC [3]: 33.6% | MCV [3]: 62.8 fL | Mono [3]: 2% | PT [3]: 14.1 s | Plat [3]: 112.1 x10_4/uL | RBC [3]: 619.2 x10_4/ul | Ret [3]: 7.6% | WBC [3]: 69.7 x10_2/uL | KIDNEY_L [3]: 0.9 g | KIDNEY_R [3]: 0.9 g | KIDNEY_TOTAL [3]: 1.8 g | LIVER [3]: 8 g | ALP [3]: 1378 IU/L | ALT [3]: 27.2 IU/L | AST [3]: 71 IU/L | BUN [3]: 7.4 mg/dL | CRE [3]: 0.2 mg/dL | DBIL [3]: 0.016 mg/dL | GLC [3]: 194 mg/dL | K [3]: 4.1 meq/L | LDH [3]: 70.8 IU/L | Na [3]: 142.2 meq/L | PL [3]: 148.8 mg/dL | RALB [3]: 2.6 g/dL | TBIL [3]: 0.058 mg/dL | TC [3]: 80 mg/dL | TG [3]: 29.8 mg/dL | TP [3]: 5.6 g/dL | gamma-GTP [3]: 1 IU/L | TERMINAL_BW [4]: 211.5 g | APTT [4]: 16.7 s | Bas [4]: 0.2% | Eos [4]: 1.2% | Fbg [4]: 278.6 mg/dL | Hb [4]: 13.6 g/dL | Ht [4]: 40% | Lym [4]: 78.6% | MCHC [4]: 33.9% | MCV [4]: 61.9 fL | Mono [4]: 2.4% | PT [4]: 14.3 s | Plat [4]: 118.4 x10_4/uL | RBC [4]: 646.4 x10_4/ul | Ret [4]: 7.1% | WBC [4]: 94.4 x10_2/uL | KIDNEY_L [4]: 1 g | KIDNEY_R [4]: 1 g | KIDNEY_TOTAL [4]: 1.9 g | LIVER [4]: 8.6 g | ALP [4]: 1604.8 IU/L | ALT [4]: 29 IU/L | AST [4]: 66.2 IU/L | BUN [4]: 10 mg/dL | CRE [4]: 0.2 mg/dL | DBIL [4]: 0.02 mg/dL | GLC [4]: 175.4 mg/dL | K [4]: 4.2 meq/L | LDH [4]: 102.4 IU/L | Na [4]: 142.4 meq/L | PL [4]: 126.6 mg/dL | RALB [4]: 2.5 g/dL | TBIL [4]: 0.042 mg/dL | TC [4]: 66.8 mg/dL | TG [4]: 52.4 mg/dL | TP [4]: 5.4 g/dL | gamma-GTP [4]: 1 IU/L | TERMINAL_BW [5]: 211 g | APTT [5]: 19.4 s | Bas [5]: 0.2% | Eos [5]: 1% | Fbg [5]: 266.2 mg/dL | Hb [5]: 13.1 g/dL | Ht [5]: 38.8% | Lym [5]: 77.6% | MCHC [5]: 33.6% | MCV [5]: 61.9 fL | Mono [5]: 3.4% | PT [5]: 14.1 s | Plat [5]: 118.3 x10_4/uL | RBC [5]: 626.4 x10_4/ul | Ret [5]: 8.3% | WBC [5]: 94.8 x10_2/uL | KIDNEY_L [5]: 0.9 g | KIDNEY_R [5]: 0.9 g | KIDNEY_TOTAL [5]: 1.8 g | LIVER [5]: 8.7 g | ALP [5]: 1674 IU/L | ALT [5]: 37.8 IU/L | AST [5]: 76 IU/L | BUN [5]: 10.2 mg/dL | CRE [5]: 0.2 mg/dL | DBIL [5]: 0.012 mg/dL | GLC [5]: 185.6 mg/dL | K [5]: 3.9 meq/L | LDH [5]: 78.4 IU/L | Na [5]: 141.4 meq/L | PL [5]: 137.8 mg/dL | RALB [5]: 2.5 g/dL | TBIL [5]: 0.058 mg/dL | TC [5]: 72 mg/dL | TG [5]: 41.8 mg/dL | TP [5]: 5.4 g/dL | gamma-GTP [5]: 1.2 IU/L | TERMINAL_BW [6]: 208.6 g | APTT [6]: 16.1 s | Bas [6]: 0.2% | Eos [6]: 0.8% | Fbg [6]: 289 mg/dL | Hb [6]: 13.1 g/dL | Ht [6]: 39.2% | Lym [6]: 79.2% | MCHC [6]: 33.4% | MCV [6]: 61.4 fL | Mono [6]: 2.4% | PT [6]: 14.3 s | RBC [6]: 637.2 x10_4/ul | Ret [6]: 7.9% | WBC [6]: 80.1 x10_2/uL | KIDNEY_L [6]: 1 g | KIDNEY_R [6]: 0.9 g | KIDNEY_TOTAL [6]: 1.9 g | LIVER [6]: 8.5 g | ALP [6]: 1539.4 IU/L | ALT [6]: 32 IU/L | AST [6]: 71.8 IU/L | BUN [6]: 8.6 mg/dL | CRE [6]: 0.2 mg/dL | DBIL [6]: 0.016 mg/dL | GLC [6]: 186.4 mg/dL | K [6]: 3.8 meq/L | LDH [6]: 94.8 IU/L | Na [6]: 142.2 meq/L | PL [6]: 139.6 mg/dL | RALB [6]: 2.5 g/dL | TBIL [6]: 0.058 mg/dL | TC [6]: 74.2 mg/dL | TG [6]: 26 mg/dL | TP [6]: 5.4 g/dL | gamma-GTP [6]: 1.4 IU/L | TERMINAL_BW [7]: 209.1 g | APTT [7]: 15.5 s | Bas [7]: 0.4% | Eos [7]: 1% | Fbg [7]: 295.6 mg/dL | Hb [7]: 12.9 g/dL | Ht [7]: 38.7% | Lym [7]: 77.6% | MCHC [7]: 33.4% | MCV [7]: 61.4 fL | Mono [7]: 1.6% | PT [7]: 14 s | Plat [7]: 122 x10_4/uL | RBC [7]: 631.4 x10_4/ul | Ret [7]: 8% | WBC [7]: 93 x10_2/uL | KIDNEY_L [7]: 0.9 g | KIDNEY_R [7]: 0.9 g | KIDNEY_TOTAL [7]: 1.8 g | LIVER [7]: 7.6 g | ALP [7]: 1420.6 IU/L | ALT [7]: 31.6 IU/L | AST [7]: 74.6 IU/L | BUN [7]: 7.8 mg/dL | CRE [7]: 0.2 mg/dL | DBIL [7]: 0.016 mg/dL | GLC [7]: 182.2 mg/dL | K [7]: 3.9 meq/L | LDH [7]: 83.2 IU/L | Na [7]: 141.8 meq/L | PL [7]: 124 mg/dL | RALB [7]: 2.6 g/dL | TBIL [7]: 0.062 mg/dL | TC [7]: 66 mg/dL | TG [7]: 23.2 mg/dL | TP [7]: 5.5 g/dL | gamma-GTP [7]: 1.8 IU/L | TERMINAL_BW [8]: 203.9 g | APTT [8]: 17 s | Bas [8]: 0% | Eos [8]: 1% | Fbg [8]: 279.2 mg/dL | Hb [8]: 13.8 g/dL | Ht [8]: 40.9% | Lym [8]: 75.4% | MCHC [8]: 33.7% | MCV [8]: 62.5 fL | Mono [8]: 2.2% | PT [8]: 14.3 s | Plat [8]: 121.4 x10_4/uL | RBC [8]: 654.4 x10_4/ul | Ret [8]: 7.7% | WBC [8]: 89.2 x10_2/uL | KIDNEY_L [8]: 1 g | KIDNEY_R [8]: 1 g | KIDNEY_TOTAL [8]: 1.9 g | LIVER [8]: 8 g | ALP [8]: 1411 IU/L | ALT [8]: 25.2 IU/L | AST [8]: 66 IU/L | BUN [8]: 9.8 mg/dL | CRE [8]: 0.2 mg/dL | DBIL [8]: 0.014 mg/dL | GLC [8]: 174.8 mg/dL | K [8]: 4.3 meq/L | LDH [8]: 77 IU/L | Na [8]: 141.8 meq/L | PL [8]: 124.8 mg/dL | RALB [8]: 2.6 g/dL | TBIL [8]: 0.052 mg/dL | TC [8]: 67.6 mg/dL | TG [8]: 38 mg/dL | TP [8]: 5.7 g/dL | gamma-GTP [8]: 1.2 IU/L
